Several values for one entry are separate records, joined by “and”; a condition that tells them apart may be missing. Equal values may be shown once.
How the values were obtained:
Format in all cases: cell-based
[1] = system: Aspergillus niger; experiment: MIC and synergy of MIT/BIT (1:1) and IPBC in Sabouraud maltose broth, 72 h
Procedure: (§1) In all the examples in which an active substance mixture of MIT and BIT as well as additionally a further active biocidal substance was used, the weight ratio of MIT to BIT was 1:1.
(§2) The synergy index is calculated according to the method of F. C. Kull et al., Applied Microbiology, Vol. 9 (1961), p. 538. Here the synergy index is calculated using the following formula:
(§3) Synergy index SI=Qa/QA+Qb/QB.
The synergy of an active substance mixture that contains 3-iodo-2-propinyl-N-butyl carbamate (IPBC) in addition to MIT and BIT, against the microorganism Aspergillus niger is shown as in Example 1.
(§4) The test batches contained a Sabouraud maltose broth as a nutrient medium. The spore concentration was 10^6 per mL. The incubation time was 72 h at 25° C. Each sample was incubated on an incubation shaker at 120 rpm.

[2] = system: Penicillium funiculosum; experiment: as above
Procedure: as §1, §2, §3
The synergy of an active substance mixture that contains IPBC in addition to MIT and BIT, against the microorganism Penicillium funiculosum is shown as in Example 1.
as §4

[3] = system: Escherichia coli; experiment: MIC and synergy of MIT and BIT in Müller-Hinton broth, 72 h; conditions: for growth of the microorganism: BIT 0 ppm, MIT ppm = row head c0; as to growth of the microorganism: key: growth of the microorganism took place (symbol '+'); or not (symbol '−')
Procedure: For this purpose, aqueous mixtures were produced with various concentrations of 2-methylisothiazolin-3-one (MIT) and 1,2-benzisothiazolin-3-one (BIT) and the activity of these mixtures on Escherichia coli (International Mycological Institute, Strain No. IMI 362054) was tested.
In addition to the biocide component and water, the aqueous mixtures contained a nutrient medium, namely a Müller-Hinton broth (commercial product “Merck No. 10393”). The cell density of Escherichia coli was 10^6 cells/mL. The incubation time was 72 h at 25° C. Each sample was incubated on an incubation shaker at 120 rpm.
as §2, §3
When the synergy index has the value 1, this means that there is an addition of the activity of the two biocides. When the synergy index has a value of less than 1, this means that a synergy of the two biocides exists.

[4] = system: Pseudomonas putida; experiment: MIC and synergy of MIT and BIT in Müller-Hinton broth, 48 h; as to growth of the microorganism: key: growth of the microorganism took place (symbol '+'); or not (symbol '−')
Procedure: as §2, §3
The synergy of the two active substances MIT and BIT against the microorganism Pseudomonas putida is shown as in Example 1.
(§5) The test batches again contained a Müller-Hinton broth as a nutrient medium. The cell density was 10^6 cells/mL. The incubation time was 48 h at 25° C. Each sample was incubated on an incubation shaker at 120 rpm.

[5] = system: Pseudomonas stutzeri; experiment: MIC and synergy of MIT and BIT in Müller-Hinton broth, 72 h; conditions: for growth of the microorganism: BIT 0 ppm, MIT ppm = row head c0; as to growth of the microorganism: key: growth of the microorganism took place (symbol '+'); or not (symbol '−')
Procedure: as §2, §3
The synergy of MIT and BIT against the microorganism Pseudomonas stutzeri is shown as in Example 1.
(§6) The test batches again contained a Müller-Hinton broth as a nutrient medium. The cell density was 10^6 cells/mL. The incubation time was 72 h at 25° C. Each sample was incubated on an incubation shaker at 120 rpm.

[6] = system: Klebsiella pneumoniae; experiment: as above; conditions: for growth of the microorganism: BIT 0 ppm, MIT ppm = row head c0; as to growth of the microorganism: key: growth of the microorganism took place (symbol '+'); or not (symbol '−')
Procedure: as §2, §3
The synergy of the two active substances MIT and BIT against the microorganism Klebsiella pneumoniae is shown as in example 1.
as §6

[7] = system: Pseudomonas aeruginosa; experiment: MIC and synergy of MIT and BIT in Müller-Hinton broth, 48 h
Procedure: as §2, §3
The synergy of the two active substances MIT and BIT against the microorganism Pseudomonas aeruginosa is shown as in Example 1.
as §5

[8] = system: standard bacterial inoculum; experiment: Preservation of coating composition A, repeated bacterial inoculation, streak evaluation; design: key: 0: no growth; minimal growth up to 10 colonies; 2: slight growth up to 100 colonies; moderate growth up to 300 colonies; 4: uniform growth, single colonies still discernible; 5: strong growth, too many colonies to count, but not covering entire surface; 6: extensive growth, almost no individual colonies, total streak surface overgrown
Description: Biocide compositions according to the invention were incorporated into a coating composition A that is used for coating building facades. This coating composition is a plaster based on an aqueous polymer dispersion commercially available under the designation “Granol KR 3.0” (company Steinwerke Kupferdreh GmbH). The addition of the biocide composition of the invention served to preserve the coating composition before its use, i.e., while it was stored in its packing drums.
(§7) The biocides shown in Table XI below were added respectively to 50 g of coating composition A. The stated amounts of biocide refer to the amount of coating composition A. In the MIT/BIT mixtures, the two biocides were present in a weight ratio of 1:1.
(§8) Apart from a blank test without addition of biocide, 1 mL of a standard bacterial inoculum that contained the following bacterial strains was added to each sample of coating composition A:
(§9) The cell density of the inoculum was 10^10 to 3·10^10 cells/mL, and the cell density of the samples was 2·10^8 to 6·10^8 cells/g. The samples were held at 30° C. for 7 days. Then a streak of each sample was produced on a nutrient agar plate, held at 30° C. for 48 h, and then evaluated for bacterial growth. The following evaluation scale was used:
(§10) When the bacterial growth was evaluated as below 6, a second bacterial inoculum of the above-mentioned type was added to the corresponding original 50 g sample and it was again held at 30° C. for 7 days. Then a streak was again produced on a nutrient agar plate, which was again evaluated for its bacterial growth after a holding time of 48 h at 30° C.
(§11) When the bacterial growth of the streak was evaluated as 6 for a sample, the testing of this sample was terminated. As long as a sample had not reached this number, a bacterial inoculum was again added in the above-mentioned manner and the sample was held and tested by means of a streak. This procedure was repeated as necessary, with a maximum of 4 bacterial inocula being added per sample.

[9] = system: standard bacterial inoculum; experiment: Preservation of coating composition B, repeated bacterial inoculation, streak evaluation; design: key to Bacterial growth (7 days + 48 h after 4th inoculation): 0: no growth; minimal growth up to 10 colonies; 2: slight growth up to 100 colonies; moderate growth up to 300 colonies; 4: uniform growth, single colonies still discernible; 5: strong growth, too many colonies to count, but not covering entire surface; 6: extensive growth, almost no individual colonies, total streak surface overgrown
Procedure: as §7, §8, §9, §10, §11
Example 9 was repeated, but using coating composition B instead of coating composition A.
Coating composition B is a particularly low-emission plaster based on a polymer dispersion commercially available under the designation “Granol KR 3.0 LF” (company Steinwerke Kupferdreh GmbH).

[10] = system: Aspergillus niger; experiment: MIC and synergy of MIT and BIT in Sabouraud maltose broth, 96 h
Procedure: as §2, §3
The synergy of the two active substances MIT and BIT against the microorganism Aspergillus niger is shown as in Example 1.
(§12) The test batches contained a Sabouraud maltose broth as a nutrient medium. The spore concentration was 10^6 per mL. The incubation time was 96 h at 25° C. Each sample was incubated on an incubation shaker at 120 rpm.

[11] = system: Penicillium funiculosum; experiment: as above
Procedure: as §2, §3
The synergy of the two active substances MIT and BIT against the microorganism Penicillium funiculosum is shown as in Example 1.
as §12

[12] = MIT share of the BIT/MIT mixture at MIC, 72 h
[13] = MIT share of the BIT/MIT mixture at MIC, 48 h
[14] = share of the BIT/MIT mixture at MIC, 96 h

CCCCNC(=O)OCC#CI [IPBC, 3-iodo-2-propinyl-N-butyl carbamate]
Qb/QB ([1]; Aspergillus niger, 72 h): 1.00 | Synergy index Qa/QA + Qb/QB ([1]; Aspergillus niger, 72 h): 1.00 | MIC at IPBC concentration Qb ([1]; IPBC share at the MIC, Aspergillus niger, 72 h): 2.5 ppm | Total concentration BIT/MIT + IPBC Qa + Qb ([1]; at the MIC, Aspergillus niger, 72 h): 2.5 ppm | MIC value ([1]; used alone, 72 h at 25° C.): 2.5 ppm | MIC at IPBC concentration Qb ([2]; IPBC share at the MIC, Penicillium funiculosum, 72 h): 0.75 ppm | Qb/QB ([2]; Penicillium funiculosum, 72 h): 1.00 | Synergy index Qa/QA + Qb/QB ([2]; Penicillium funiculosum, 72 h): 1.00 | Total concentration MIT/BIT + IPBC ([2]; at the MIC, Penicillium funiculosum, 72 h): 0.75 ppm | MIC value ([2]; used alone, 72 h at 25° C.): 0.75 ppm

Cn1sccc1=O [MIT, 2-methylisothiazolin-3-one]
MIC at Total concentration BIT + MIT Qa + Qb ([3]; 72 h): 17.5 ppm | Qb/QB ([3]; 72 h): 1.00 | Synergy index Qa/QA + Qb/QB ([3]; 72 h, method of Kull): 1.00 | growth of the microorganism ([3]; 72 h, MIT 10 ppm): + | growth of the microorganism ([3]; 72 h, MIT 25 ppm): − | MIC at MIT concentration Qb [3, 12]: 17.5 ppm | MIC value ([3]; used alone, 72 h at 25° C.): 17.5 ppm | MIC at Total concentration BIT + MIT Qa + Qb ([4]; 48 h): 12.5 ppm | Qb/QB ([4]; 48 h): 1.00 | Synergy index Qa/QA + Qb/QB ([4]; 48 h): 1.00 | growth of the microorganism ([4]; BIT 0 ppm, MIT ppm = row head c0, 48 h): + and − | MIC at MIT concentration Qb [4, 13]: 12.5 ppm | MIC value ([4]; used alone, 48 h at 25° C.): 12.5 ppm | MIC at Total concentration BIT + MIT Qa + Qb ([5]; 72 h): 12.5 ppm | Qb/QB ([5]; 72 h): 1.00 | Synergy index Qa/QA + Qb/QB ([5]; 72 h): 1.00 | growth of the microorganism ([5]; 72 h, MIT 10 ppm): + | growth of the microorganism ([5]; 72 h, MIT 15 ppm): − | MIC at MIT concentration Qb [5, 12]: 12.5 ppm | MIC value ([5]; used alone, 72 h at 25° C.): 12.5 ppm | MIC at Total concentration BIT + MIT Qa + Qb ([6]; 72 h): 20 ppm | Qb/QB ([6]; 72 h): 1.00 | Synergy index Qa/QA + Qb/QB ([6]; 72 h): 1.00 | growth of the microorganism ([6]; 72 h, MIT 12.5 ppm): + | growth of the microorganism ([6]; 72 h, MIT 25 ppm): − | MIC at MIT concentration Qb [6, 12]: 20 ppm | MIC value ([6]; used alone, 72 h at 25° C.): 20 ppm | MIC at Total concentration BIT + MIT Qa + Qb ([7]; 48 h): 30 ppm | Qb/QB ([7]; 48 h): 1.00 | Synergy index Qa/QA + Qb/QB ([7]; 48 h): 1.00 | MIC at MIT concentration Qb [7, 13]: 30 ppm | MIC value ([7]; used alone, 48 h at 25° C.): 30 ppm | Bacterial growth (7 days + 48 h after 4th inoculation) ([8]; biocide 0.005% by wt): full bacterial growth was reached only after four inoculations and 6 | Bacterial growth (7 days + 48 h after 4th inoculation) ([8]; biocide 0.01% by wt): 5 | Bacterial growth (7 days + 48 h after 4th inoculation) ([8]; biocide 0.015% by wt): 5 | Bacterial growth (7 days + 48 h after 4th inoculation) ([8]; biocide 0.02% by wt): 4 | Bacterial growth (7 days + 48 h after 4th inoculation) ([8]; biocide 0.03% by wt): no bacterial growth found even after four inoculations and 0 | Bacterial growth (7 days + 48 h after 4th inoculation) ([9]; biocide 0.005% by wt): 4 | Bacterial growth (7 days + 48 h after 4th inoculation) ([9]; biocide 0.01% by wt): 1 (minimal growth up to 10 colonies) | Bacterial growth (7 days + 48 h after 4th inoculation) ([9]; biocide 0.015% by wt): 1 (minimal growth up to 10 colonies) | Bacterial growth (7 days + 48 h after 4th inoculation) ([9]; biocide 0.02% by wt): prevented completely and 0 | Bacterial growth (7 days + 48 h after 4th inoculation) ([9]; biocide 0.03% by wt): prevented completely and 0 | MIC at Total concentration BIT + MIT Qa + Qb ([10]; 96 h): 100 ppm | Qb/QB ([10]; 96 h): 1.00 | Synergy index Qa/QA + Qb/QB ([10]; 96 h): 1.00 | MIC at MIT concentration Qb [10, 14]: 100 ppm | MIC value ([10]; used alone, 96 h at 25° C.): 750 ppm | MIC at Total concentration BIT + MIT Qa + Qb ([11]; 96 h): 40 ppm | Qb/QB ([11]; 96 h): 1.00 | Synergy index Qa/QA + Qb/QB ([11]; 96 h): 1.00 | MIC at MIT concentration Qb [11, 14]: 40 ppm | MIC value ([11]; used alone, 96 h at 25° C.): 200 ppm

From patent US6361788B1, “Synergistic biocide composition” (Thor Chemie GmbH, priority 1997, dated 2002)
